Source: publication PMC11292009, “Mapping protein binding sites by photoreactive fragment pharmacophores” (Communications Chemistry, 2024)
Entries after “also recorded” stand apart in the source; their conditions may differ.

System: T1, Kras G12D protein / SOS1 exchange domain
T1 construct: Cytoskeleton, Inc. (SOS1 exchange domain only) GE02
Assay: Kras-SOS exchange assay (MANT-GDP)
Type: biochemical
Conditions: for normalized signal, Kras-SOS exchange (Figure 4c PhP072 irradiation): Php072 500 uM
Method: MANT-GDP loading assay: Kras^G12D protein was first buffer exchanged into low magnesium buffer (20 mM HEPES-NaOH (pH 7.5), 50 mM NaCl, 0.5 mM MgCl2) using a NAP5 column (catalog no.: 17-0583-1, Cytiva). The proteins were then incubated with 20-fold molar excess of N-methylanthraniloyl (MANT)-GDP (catalog no.: 69244, Sigma-Aldrich) in loading buffer (50 mM NaCl, 20 mM HEPES-NaOH [pH 7.5], 0.5 mM MgCl2, 10 mM EDTA, and 1 mM Dithiothreitol (DTT)) in a total volume of 200 μL at 20 °C for 90 min. The reaction was stopped by adding MgCl2 to a final concentration of 10 mM, then incubated at 20 °C for 30 min. The unbound MANT-GDP was removed using the NAP-5 column equilibrated with nucleotide exchange buffer (40 mM HEPES-NaOH (pH 7.5), 50 mM NaCl, 10 mM MgCl2, 2 mM DTT).
MANT-GDP exchange assay: First the MANT-GDP bound Kras G12D protein (in a final 1 μM molar concentration) was preincubated with the inhibitor molecules for 60 min. After the preincubation the samples were exposed to UV light for 10 min with a wavelength of 366 nm. The UV-treated MANT-GDP Kras-inhibitor mix was loaded into a black 384 well microplate. The nucleotide exchange reaction was initiated by adding 100 fold molar excess of GppNHp (catalog no.: G0635, Sigma-Aldrich), a non-hydrolyzable GTP analog and the SOS1 exchange domain (catalog no.: GE02, Cytoskeleton, Inc.) protein in 0.5 μM final concentration. The change in fluorescence intensity was measured every 30 s in room temperature for 60 min on an EnSpire plate reader (PerkinElmer, Inc.). The measured fluorescence values were fitted to a single exponential function by using GraphPad Prism 8 software.

Structure (SMILES): Cc1ncc(CO)c(CNC(=O)CCC2(C)N=N2)c1O [PhP072, Cc1ncc(CO)c(c1O)CNC(=O)CCC2(C)N=N2]
- normalized signal, Kras-SOS exchange (Figure 4c PhP072 irradiation) (time 30 sec): 0.9874
- normalized signal, Kras-SOS exchange (Figure 4c PhP072 irradiation) (time 60 sec): 0.984
- normalized signal, Kras-SOS exchange (Figure 4c PhP072 irradiation) (time 90 sec): 0.9869
- normalized signal, Kras-SOS exchange (Figure 4c PhP072 irradiation) (time 120 sec): 0.9755
- normalized signal, Kras-SOS exchange (Figure 4c PhP072 irradiation) (time 210 sec): 0.9893
- normalized signal, Kras-SOS exchange (Figure 4c PhP072 irradiation) (time 240 sec): 1.005
- normalized signal, Kras-SOS exchange (Figure 4c PhP072 irradiation) (time 270 sec): 0.9931
- normalized signal, Kras-SOS exchange (Figure 4c PhP072 irradiation) (time 300 sec): 0.9815
- normalized signal, Kras-SOS exchange (Figure 4c PhP072 irradiation) (time 330 sec): 0.9652
- normalized signal, Kras-SOS exchange (Figure 4c PhP072 irradiation) (time 360 sec): 0.9672
- normalized signal, Kras-SOS exchange (Figure 4c PhP072 irradiation) (time 390 sec): 0.9659
- normalized signal, Kras-SOS exchange (Figure 4c PhP072 irradiation) (time 420 sec): 0.9589
- normalized signal, Kras-SOS exchange (Figure 4c PhP072 irradiation) (time 450 sec): 0.9736
- normalized signal, Kras-SOS exchange (Figure 4c PhP072 irradiation) (time 480 sec): 0.978
- normalized signal, Kras-SOS exchange (Figure 4c PhP072 irradiation) (time 510 sec): 0.9558
- normalized signal, Kras-SOS exchange (Figure 4c PhP072 irradiation) (time 540 sec): 0.9578
- normalized signal, Kras-SOS exchange (Figure 4c PhP072 irradiation) (time 570 sec): 0.9776
- normalized signal, Kras-SOS exchange (Figure 4c PhP072 irradiation) (time 600 sec): 0.972
- normalized signal, Kras-SOS exchange (Figure 4c PhP072 irradiation) (time 630 sec): 0.974
- normalized signal, Kras-SOS exchange (Figure 4c PhP072 irradiation) (time 660 sec): 0.9647
- normalized signal, Kras-SOS exchange (Figure 4c PhP072 irradiation) (time 690 sec): 0.9564
- normalized signal, Kras-SOS exchange (Figure 4c PhP072 irradiation) (time 720 sec): 0.9623
- normalized signal, Kras-SOS exchange (Figure 4c PhP072 irradiation) (time 750 sec): 0.9619
- normalized signal, Kras-SOS exchange (Figure 4c PhP072 irradiation) (time 780 sec): 0.9405
- normalized signal, Kras-SOS exchange (Figure 4c PhP072 irradiation) (time 810 sec): 0.9601
- normalized signal, Kras-SOS exchange (Figure 4c PhP072 irradiation) (time 840 sec): 0.9458
- normalized signal, Kras-SOS exchange (Figure 4c PhP072 irradiation) (time 870 sec): 0.9534
- normalized signal, Kras-SOS exchange (Figure 4c PhP072 irradiation) (time 900 sec): 0.9403
- normalized signal, Kras-SOS exchange (Figure 4c PhP072 irradiation) (time 930 sec): 0.9459
- normalized signal, Kras-SOS exchange (Figure 4c PhP072 irradiation) (time 960 sec): 0.9381
- normalized signal, Kras-SOS exchange (Figure 4c PhP072 irradiation) (time 990 sec): 0.9447
- normalized signal, Kras-SOS exchange (Figure 4c PhP072 irradiation) (time 1020 sec): 0.9591
- normalized signal, Kras-SOS exchange (Figure 4c PhP072 irradiation) (time 1050 sec): 0.9368
- normalized signal, Kras-SOS exchange (Figure 4c PhP072 irradiation) (time 1080 sec): 0.9576
- normalized signal, Kras-SOS exchange (Figure 4c PhP072 irradiation) (time 1110 sec): 0.9476
- normalized signal, Kras-SOS exchange (Figure 4c PhP072 irradiation) (time 1140 sec): 0.9304
- normalized signal, Kras-SOS exchange (Figure 4c PhP072 irradiation) (time 1170 sec): 0.9558
- normalized signal, Kras-SOS exchange (Figure 4c PhP072 irradiation) (time 1200 sec): 0.9429
- normalized signal, Kras-SOS exchange (Figure 4c PhP072 irradiation) (time 1230 sec): 0.9405
- normalized signal, Kras-SOS exchange (Figure 4c PhP072 irradiation) (time 1260 sec): 0.9391
- normalized signal, Kras-SOS exchange (Figure 4c PhP072 irradiation) (time 1290 sec): 0.9393
- normalized signal, Kras-SOS exchange (Figure 4c PhP072 irradiation) (time 1320 sec): 0.944
- normalized signal, Kras-SOS exchange (Figure 4c PhP072 irradiation) (time 1350 sec): 0.9654
- normalized signal, Kras-SOS exchange (Figure 4c PhP072 irradiation) (time 1380 sec): 0.9701
- normalized signal, Kras-SOS exchange (Figure 4c PhP072 irradiation) (time 1410 sec): 0.9426
- normalized signal, Kras-SOS exchange (Figure 4c PhP072 irradiation) (time 1440 sec): 0.9472
- normalized signal, Kras-SOS exchange (Figure 4c PhP072 irradiation) (time 1470 sec): 0.9361
- normalized signal, Kras-SOS exchange (Figure 4c PhP072 irradiation) (time 1500 sec): 0.939
- normalized signal, Kras-SOS exchange (Figure 4c PhP072 irradiation) (time 1530 sec): 0.9519
- normalized signal, Kras-SOS exchange (Figure 4c PhP072 irradiation) (time 1560 sec): 0.9436
- normalized signal, Kras-SOS exchange (Figure 4c PhP072 irradiation) (time 1590 sec): 0.9444
- normalized signal, Kras-SOS exchange (Figure 4c PhP072 irradiation) (time 1620 sec): 0.9461
- normalized signal, Kras-SOS exchange (Figure 4c PhP072 irradiation) (time 1650 sec): 0.9444
- normalized signal, Kras-SOS exchange (Figure 4c PhP072 irradiation) (time 1680 sec): 0.9402
- normalized signal, Kras-SOS exchange (Figure 4c PhP072 irradiation) (time 1710 sec): 0.948
- normalized signal, Kras-SOS exchange (Figure 4c PhP072 irradiation) (time 1740 sec): 0.9364
- normalized signal, Kras-SOS exchange (Figure 4c PhP072 irradiation) (time 1770 sec): 0.939
- normalized signal, Kras-SOS exchange (Figure 4c PhP072 irradiation) (time 1800 sec): 0.9328
- normalized signal, Kras-SOS exchange (Figure 4c PhP072 irradiation) (time 1830 sec): 0.9307
- normalized signal, Kras-SOS exchange (Figure 4c PhP072 irradiation) (time 1860 sec): 0.9265
- normalized signal, Kras-SOS exchange (Figure 4c PhP072 irradiation) (time 1890 sec): 0.9579
- normalized signal, Kras-SOS exchange (Figure 4c PhP072 irradiation) (time 1920 sec): 0.9312
- normalized signal, Kras-SOS exchange (Figure 4c PhP072 irradiation) (time 1950 sec): 0.9362
- normalized signal, Kras-SOS exchange (Figure 4c PhP072 irradiation) (time 1980 sec): 0.9324
- normalized signal, Kras-SOS exchange (Figure 4c PhP072 irradiation) (time 2010 sec): 0.9475
- normalized signal, Kras-SOS exchange (Figure 4c PhP072 irradiation) (time 2040 sec): 0.9452
- normalized signal, Kras-SOS exchange (Figure 4c PhP072 irradiation) (time 2070 sec): 0.9435
- normalized signal, Kras-SOS exchange (Figure 4c PhP072 irradiation) (time 2100 sec): 0.9537
- normalized signal, Kras-SOS exchange (Figure 4c PhP072 irradiation) (time 2130 sec): 0.9458
- normalized signal, Kras-SOS exchange (Figure 4c PhP072 irradiation) (time 2160 sec): 0.9297
- normalized signal, Kras-SOS exchange (Figure 4c PhP072 irradiation) (time 2190 sec): 0.9168
- normalized signal, Kras-SOS exchange (Figure 4c PhP072 irradiation) (time 2220 sec): 0.941
- normalized signal, Kras-SOS exchange (Figure 4c PhP072 irradiation) (time 2250 sec): 0.934
- normalized signal, Kras-SOS exchange (Figure 4c PhP072 irradiation) (time 2280 sec): 0.9076
- normalized signal, Kras-SOS exchange (Figure 4c PhP072 irradiation) (time 2310 sec): 0.9404
- normalized signal, Kras-SOS exchange (Figure 4c PhP072 irradiation) (time 2340 sec): 0.9263
- normalized signal, Kras-SOS exchange (Figure 4c PhP072 irradiation) (time 2370 sec): 0.9501
- normalized signal, Kras-SOS exchange (Figure 4c PhP072 irradiation) (time 2400 sec): 0.9106
- normalized signal, Kras-SOS exchange (Figure 4c PhP072 irradiation) (time 2430 sec): 0.9173
- normalized signal, Kras-SOS exchange (Figure 4c PhP072 irradiation) (time 2460 sec): 0.928
- normalized signal, Kras-SOS exchange (Figure 4c PhP072 irradiation) (time 2490 sec): 0.9153
- normalized signal, Kras-SOS exchange (Figure 4c PhP072 irradiation) (time 2520 sec): 0.9464
- normalized signal, Kras-SOS exchange (Figure 4c PhP072 irradiation) (time 2550 sec): 0.9246
- normalized signal, Kras-SOS exchange (Figure 4c PhP072 irradiation) (time 2580 sec): 0.9142
- normalized signal, Kras-SOS exchange (Figure 4c PhP072 irradiation) (time 2910 sec): 0.92
- normalized signal, Kras-SOS exchange (Figure 4c PhP072 irradiation) (time 2940 sec): 0.9177
- normalized signal, Kras-SOS exchange (Figure 4c PhP072 irradiation) (time 2970 sec): 0.9062
- normalized signal, Kras-SOS exchange (Figure 4c PhP072 irradiation) (time 3000 sec): 0.928
- normalized signal, Kras-SOS exchange (Figure 4c PhP072 irradiation) (time 3030 sec): 0.9131
- normalized signal, Kras-SOS exchange (Figure 4c PhP072 irradiation) (time 3060 sec): 0.9065
- normalized signal, Kras-SOS exchange (Figure 4c PhP072 irradiation) (time 3090 sec): 0.9086
- normalized signal, Kras-SOS exchange (Figure 4c PhP072 irradiation) (time 3120 sec): 0.9109
- normalized signal, Kras-SOS exchange (Figure 4c PhP072 irradiation) (time 3150 sec): 0.9207
- normalized signal, Kras-SOS exchange (Figure 4c PhP072 irradiation) (time 3180 sec): 0.8921
- normalized signal, Kras-SOS exchange (Figure 4c PhP072 irradiation) (time 3210 sec): 0.9129
- normalized signal, Kras-SOS exchange (Figure 4c PhP072 irradiation) (time 3240 sec): 0.8834
- normalized signal, Kras-SOS exchange (Figure 4c PhP072 irradiation) (time 3270 sec): 0.9149
- normalized signal, Kras-SOS exchange (Figure 4c PhP072 irradiation) (time 3300 sec): 0.9074
- normalized signal, Kras-SOS exchange (Figure 4c PhP072 irradiation) (time 3330 sec): 0.9207
- Effect on SOS1-mediated nucleotide exchange of KRas (prior to irradiation): little effect
- Effect on SOS1-mediated nucleotide exchange of KRas (upon irradiation (366 nm, 10 min)): fully restores KRas function to the control level; also recorded: restore KRas function
